Source: PubChem BioAssay (NCI)
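Results reflect a 48-hour exposure of cells in 96-well plates to compound at five concentrations. Here, GI50 denotes the concentration required for 50% inhibition of growth. Definition used: TGI = concentration required for complete inhibition of growth.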

Legend:
Assay in all cases: inhibition of tumour cell growth, NCI panel, 48 h
MCF7 breast = test system: MCF7 breast
ACHN renal = test system: ACHN renal
T-47D breast = test system: T-47D breast
NCI/ADR-RES ovarian = test system: NCI/ADR-RES ovarian
DU-145 prostate = test system: DU-145 prostate
A498 renal = test system: A498 renal
HL-60(TB) leukemia = test system: HL-60(TB) leukemia
DLD-1 colon = test system: DLD-1 colon
DMS 114 small cell lung = test system: DMS 114 small cell lung
DMS 273 small cell lung = test system: DMS 273 small cell lung
LXFL 529 NSCLC = test system: LXFL 529 NSCLC
XF 498 CNS = test system: XF 498 CNS
M19-MEL melanoma = test system: M19-MEL melanoma

| SMILES | TGI (MCF7 breast) [µM] | TGI (ACHN renal) [µM] | TGI (T-47D breast) [µM] | TGI (NCI/ADR-RES ovarian) [µM] | TGI (DU-145 prostate) [µM] | GI50 (A498 renal) [µM] | TGI (A498 renal) [µM] | GI50 (HL-60(TB) leukemia) [nM] | TGI (HL-60(TB) leukemia) [µM] | GI50 (ACHN renal) [µM] | GI50 (T-47D breast) [µM] | GI50 (NCI/ADR-RES ovarian) [µM] | GI50 (DU-145 prostate) [µM] | TGI (DLD-1 colon) [µM] | TGI (DMS 114 small cell lung) [µM] | TGI (DMS 273 small cell lung) [µM] | TGI (LXFL 529 NSCLC) [µM] | TGI (XF 498 CNS) [µM] | TGI (M19-MEL melanoma) [µM] | GI50 (MCF7 breast) [nM] |
| --- | --- | --- | --- | --- | --- | --- | --- | --- | --- | --- | --- | --- | --- | --- | --- | --- | --- | --- | --- | --- |
| Cc1cc(C)c(S(=O)(=O)N(CCCN)OCCCN)c(C)c1 | > 100 | > 100 | > 100 | > 100 | > 100 |  |  |  |  |  |  |  |  |  |  |  |  |  |  |  |
| CCN(CC)C(=S)SSCCO |  | 35.8 | 34.2 | 32.5 | > 100 | 85 | > 100 | 2170 | 8.96 | 18.7 | 15.4 | 17.1 | 37.8 |  |  |  |  |  |  |  |
| CC1CCN(c2cc(-c3cc4ccccc4o3)oc(=O)c2C#N)CC1 |  | > 100 |  |  |  |  | > 100 |  | > 100 |  |  |  |  | > 100 | > 100 | > 100 | > 100 | > 100 |  |  |
| Clc1ccc(-c2nnc(-c3nsc4ccccc34)o2)cc1 |  | > 100 |  |  |  |  |  |  |  |  |  |  |  |  | > 100 | > 100 | > 100 |  | > 100 |  |
| O=c1[nH]c(=S)[nH]c2c(C3OC(CO)C(O)C3O)nsc12 (stereo not given) | > 100 |  | > 100 | > 100 | > 100 |  | > 100 |  | > 100 |  |  |  |  |  |  |  |  |  |  |  |
| Clc1cccc(C2SCc3nc4ccccc4n32)c1 (stereo not given) |  | 99.2 |  |  |  |  |  |  | 31.6 |  |  |  |  | 34.1 |  |  | > 100 |  | 58.4 |  |
| Fc1ccc(C(OCCN2CC3CC2CN3)c2ccc(F)cc2)cc1 (stereo not given) | > 100 | > 100 | > 100 | > 100 | > 100 |  | > 100 |  | > 100 |  |  |  |  |  |  |  |  |  |  |  |
| CC(C)(CC1(C)NC(=O)NC1=O)OCc1ccccc1 (stereo not given) | > 100 | > 100 | > 100 | > 100 | > 100 |  | > 100 |  |  |  |  |  |  |  |  |  |  |  |  |  |
| CCOC(=O)[C@H]1Nc2c(cccc2[N+](=O)[O-])C2c3ccccc3CC21 (stereo not given in full) |  | > 100 |  |  |  |  |  |  |  |  |  |  |  | > 100 | > 100 | > 100 | > 100 | > 100 | > 100 |  |
| CCOc1cc(/C=C/C(=O)CC(=O)/C=C/c2ccc(OC(=O)CNCCN(CC)CC)c(OCC)c2)ccc1OC(=O)CNCCN(CC)CC | 10.5 | 3.54 | 45.4 | 24.1 | 3.56 | 2.02 | 3.85 | 1160 | 4.25 | 1.92 | 6.41 | 3.46 | 1.61 |  |  |  |  |  |  | 782 |
| CC1=NN(C(=O)c2ccc(C)cc2)C(=O)C1N=Nc1ccccc1C(=O)O (stereo not given) | > 100 |  |  | > 100 |  |  | > 100 |  | > 100 |  |  |  |  | > 100 | > 100 | > 100 |  | > 100 | > 100 |  |
| N/C(=N\N=C/c1cc([N+](=O)[O-])cc([N+](=O)[O-])c1O)NO | > 100 |  |  | > 100 |  |  | > 100 |  | > 55 |  |  |  |  | > 100 | > 100 | > 43.3 |  | 98.1 | > 100 |  |
| Cc1ccc2oc3c(ccc(=O)n3C)c(=O)c2c1 | > 100 | > 100 | > 100 | > 100 | > 100 |  | > 100 |  | > 100 |  |  |  |  |  |  |  |  |  |  |  |
| c1csc(C(NC2=NCCO2)C2CC2)c1 (stereo not given) | > 100 | > 100 | > 100 |  |  |  | > 100 |  |  |  |  |  |  |  |  |  |  |  |  |  |
| CO/C(=N\N=C(/c1ccccc1)C(F)(F)F)c1ccncc1 | > 100 |  | > 100 | 71.6 | > 100 |  | > 100 |  | > 100 |  |  |  |  |  |  |  |  |  |  |  |
